Reference: article PMC5560558, “Expression and functional implications of the renal apelinergic system in rodents” (PLoS ONE, 2017)
Where two headings read alike, the source gives them in different places. Values belong to the substance of their own block, whether it stands above or below them.

Assays:
renal APJ = conditions: cited from earlier work
From the text: (§1) This depends on apela binding heterogeneous nuclear ribonucleoprotein L (hnRNPL), an inhi ... || The expression of genes for one or both APJ-ligands with their receptor in the same cell, or cells expressing either ligand gene in the close proximity of APJ-expressing cells, raises the possibility of autocrine and/or paracrine actions for the apelinergic system within the heart and kidney. […] Aplnr and apelin appear to be co-localized in endothelial cell ...

microdissected glomeruli = microdissected glomeruli in vitro; ref [22]; cited from earlier work
From the text: as §1, with “The” for “This depends on apela binding heterogeneous nuclear ribonucleoprotein L (hnRNPL), an inhi ... || The”

collecting duct APJ = conditions: proposed, acting on collecting duct APJ; ref [24]; cited from earlier work
From the text: Apela mRNA transcripts appear to be more prevalent during development. They are predominantly expressed in the heart of embryonic rodents and zebrafish, and are also detected in isolated cells from the adult rat heart, and in adult rat and mouse kidney by RT-PCR. The precise renal location of apela gene expression in the kidney has not been reported. Evidence for renal apelin expression is less convincing—it appears to be sparsely distributed in tissue endothelial cells and perhaps vascular epithelial cells and glomeruli. In the rat and ...

rat APJ = biological target: T1, rat APJ (Rattus norvegicus, UniProt Q9JHG3); assay: ERK1/2 activation (ppERK1/2 immunostaining, IN Cell Analyzer) in CHO-B78 cells; type: cell-based; conditions: 10min at 37°C
T1 construct: expressed in transfected cells; host or cells: CHO cells, stably transfected clonal line CHO-B78
T1 sequence (Q9JHG3 1-377): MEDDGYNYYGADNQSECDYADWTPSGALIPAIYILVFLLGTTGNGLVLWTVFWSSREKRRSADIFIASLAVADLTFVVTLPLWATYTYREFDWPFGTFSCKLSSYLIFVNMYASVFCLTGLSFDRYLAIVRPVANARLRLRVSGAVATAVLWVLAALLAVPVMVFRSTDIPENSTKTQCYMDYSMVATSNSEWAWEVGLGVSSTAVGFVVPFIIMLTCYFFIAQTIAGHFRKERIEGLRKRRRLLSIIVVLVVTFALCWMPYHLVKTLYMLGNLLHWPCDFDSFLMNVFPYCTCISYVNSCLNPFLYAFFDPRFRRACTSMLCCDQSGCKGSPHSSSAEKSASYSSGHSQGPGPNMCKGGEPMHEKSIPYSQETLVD
Description: Chinese hamster ovary (CHO) cells were transfected with the rat aplnr cDNA (B78 [23]) as previously described [26]. Stably-transfected clonal cells were obtained by limiting dilution, and expression of aplnr was determined by Northern dot blots using two ^32P-dATP-labelled 48bp oligonucleotide specific for the rat aplnr sequence (B78A and B78B [23]; see ISHH below). The highest aplnr-expressing cell clones were expanded for use, and one line (CHO-B78) was used for branched-chain in situ hybridization histochemistry and ERK signal transduction assays (see below).
The nuclear and cytoplasmic fluorescence intensities in individual cells were quantified (in arbitrary units)—data was normalized to vehicle controls after subtraction of ‘no primary antibody’ backgrounds. In each experiment the data (nuclear + cytoplasmic ppERK measurements) is mean ± SEM, n = 6 (approx 1200 cells imaged from 3 wells of a 96-well plate; experiments repeated twice).
IN Cell Analyser 1000 experiments were performed in triplicate wells, with experiments performed at least 2 times. Statistical analysis was with a one-way ANOVA and post hoc Dunnett’s test with GraphPad Prism software (version 4.0b). p<0.05 was considered as statistically significant.
Cells were treated for 10min at 37°C with the indicated concentration of ligands. […]

APJ = tested on: APJ; parameters: method as in 3 sources, one per row (each row's own in cited_ref): ref [11],[12] = [11]; PMID 25995451; doi:10.1074/jbc.M115.648238; 11 Deng C , Chen H , Yang N , Feng Y , Hsueh AJW . Apela regulates fluid homeostasis by binding to the APJ receptor to activate Gi signaling . J Biol Chem . 2015; 290 : 18261 – 18268 . doi: 10.1074/j || [12]; PMID 25639753; doi:10.1038/srep08170; 12 Wang Z , Yu D , Wang M , Wang Q , Kouznetsova J , Yang R , et al Elabela-apelin receptor signaling pathway is functional in mammalian systems . Sci Rep . 2015; 5 : 8170 doi: 10.1038/srep08170 2563 ||| ref [2] = [2]; PMID 23943882; doi:10.1530/JOE-13-0227; 2 O’Carroll A-M , Lolait SJ , Harris LE , Pope GR . The apelin receptor APJ: journey from an orphan to a multifaceted regulator of homeostasis . J Endocrinol . 2013; 219 : 13 – 35 . 23943882 10.1530/ ||| ref [11] = [11]; PMID 25995451; doi:10.1074/jbc.M115.648238; 11 Deng C , Chen H , Yang N , Feng Y , Hsueh AJW . Apela regulates fluid homeostasis by binding to the APJ receptor to activate Gi signaling . J Biol Chem . 2015; 290 : 18261 – 18268 . doi: 10.1074/j; conditions: cited from earlier work
From the text: APJ activation by apelin-13 may involve multiple G proteins, while some actions involving ... || A second endogenous ligand for APJ has recently been discovered. Originally annotated as a long non-coding (nc) RNA (termed Ende) expressed primarily in the definitive endoderm during mouse embryogenesis, the apela (otherwise known as elabela or toddler) gene is also translated. It encodes a predicted 54 (58 in zebrafish) amino acid precursor molecule that is highly conserved across vertebrates and is structurally distinct from the apelin prohormone. The apela precursor can be enzymatically processed into a number of biologically active proteoforms such as ... || APJ was an orphan GPCR [23, 31] until its endogenous ligand apelin was isolated from stomach extracts by ‘reverse pharmacology’ almost 20 years ago [32]. It has recently been proposed that apela, a distinct protein unrelated to apelin, and highly conserved across vertebrates, is a new endogenous ligand for APJ.

[1] = tested on: cardiac contractility in adult rodents and humans; conditions: in vivo, ref [2],[20],[33],[34],[35]; cited from earlier work
From the text: In zebrafish, apela is expressed primarily in the embryonic heart and appears to be the main APJ ligand in ...

[2] = tested on: GPCR CXCR4 in cultured human umbilical vein endothelial cells; conditions: apela stimulation or knockdown, ref [41]; cited from earlier work
From the text: as §1, with “The” for “This depends on apela binding heterogeneous nuclear ribonucleoprotein L (hnRNPL), an inhi ... || The”

[3] = tested on: a number of tissues and cells; parameters: method as in PMID 23943882, PMID 25936916; conditions: ref [2],[19]; cited from earlier work
From the text: Many questions remain to be explored. For example, does apela in its ncRNA or peptide form(s) contribute to the pathological dispositions of some cardiovascular and metabolic conditions?

[4] = exogenously administered; ref [17]; cited from earlier work
From the text: (§2) This depends on apela binding heterogeneous nuclear ribonucleoprotein L (hnRNPL), an inhi ...

[5] = tested on: human embryonic stem cells (ESCs); conditions: which did not express aplnr, ref [18]; cited from earlier work
From the text: as §2

Substance: apelin-17
effect on diuresis (renal APJ; intravenous, ref [22]): causes diuresis
effect on haemodynamic function in glomeruli (microdissected glomeruli): effects haemodynamic function in microdissected glomeruli in vitro
effect on antidiuretic action of arginine vasopressin (collecting duct APJ): counteracts the antidiuretic effect of arginine vasopressin

EC50 (rat APJ; CHO-B78 cells stably transfected with rat aplnr, 0.01-1000nM ligand, serum-starved O/N (0.1% foetal calf serum), whole-cell (nuclear + cytoplasmic) ppERK immunofluorescence, averaged from two separate experiments, triplicate wells, read-out: EC50 for ERK activation): 15.9 nM
Substance: apela-32: rat apela-32 (cyclized, pyroglutamated; Severn Biotech, U.K.) (EKSVNFPRRRKLYRHNCFRRRCISLHSRVPFP; not fully specified; N-terminal pyroglutamate (from Gln1 of the mature peptide))

Substance: apela: second endogenous ligand for APJ; gene encodes a predicted 54 amino acid precursor molecule
ERK activation in APJ-expressing cells (APJ; in vitro, previous studies confirmed by this paper, ref [11]): stimulates ERK activation in APJ-expressing cells in vitro
effect on diuresis (renal APJ; exogenously administered, ref [11]): promotes diuresis
effect on cardiac contractility [1]: increase cardiac contractility
effect on CXCR4 expression [2]: no effect
ERK activation (stimulation vs basal) (rat APJ; CHO-B78 cells, rat APJ, one-way ANOVA with post hoc Dunnett's test vs vehicle (basal)): activates signal transduction pathways (ERK activation) in cells expressing the cloned rat APJ
anti-apoptotic activity [3]: anti-apoptotic activity
effect on food intake [4]: anorexigenic
PI3K/Akt pathway activation [5]: activates the PI3K/Akt pathway
effect on apoptosis [5]: anti-apoptotic

Substance: apelin
signal transduction pathways activated on binding APJ (APJ; often G protein-dependent, ref [2]): inhibition of adenylate cyclase, stimulation of MAP kinase (ERK) phosphorylation, Akt phosphorylation that could contribute to neuroprotection, and enhancing nitric oxide synthase activity
effect on cardiac contractility [1]: increase cardiac contractility
anti-apoptotic activity [3]: anti-apoptotic activity
